US20150105252A1, “SUBSTITUTED PYRAZOLES AS HERBICIDES” (E I DU PONT DE NEMOURS AND COMPANY, priority 2013, published 2015)

How the values were obtained:
[1] = tested on: barnyardgrass; experiment: Test A preemergence; format: in vivo, Echinochloa crus-galli; conditions: preemergence; for Barnyardgrass plant response rating (0 to 100 scale, 0 is no effect, 100 is complete control): visual injury approx. 10 days after treatment
Method in brief: (§1)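 Both timings tested concurrently in loam/sand soil: preemergence by directed soil spray, postemergence on plants of 2–10 cm at the one- to two-leaf stage. Greenhouse holding period was approximately 10 days before visual injury assessment (0–100, 0 = no effect).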

[2] = tested on: crabgrass, large; experiment: Test A preemergence; format: in vivo, Digitaria sanguinalis; conditions: preemergence; for Crabgrass, Large plant response rating (0 to 100 scale): visual injury approx. 10 days after treatment
Method in brief: as §1

[3] = tested on: foxtail, giant; experiment: Test A preemergence; format: in vivo, Setaria faberii; conditions: preemergence; for Foxtail, Giant plant response rating (0 to 100 scale): visual injury approx. 10 days after treatment
Method in brief: as §1

[4] = tested on: morningglory; experiment: Test A preemergence; format: in vivo, Ipomoea spp.; conditions: preemergence; for Morningglory plant response rating (0 to 100 scale): visual injury approx. 10 days after treatment
Method in brief: as §1

[5] = tested on: pigweed; experiment: Test A preemergence; format: in vivo, Amaranthus retroflexus; conditions: preemergence; for Pigweed plant response rating (0 to 100 scale): visual injury approx. 10 days after treatment
Method in brief: as §1

[6] = tested on: velvetleaf; experiment: Test A preemergence; format: in vivo, Abutilon theophrasti; conditions: preemergence; for Velvetleaf plant response rating (0 to 100 scale): visual injury approx. 10 days after treatment
Method in brief: as §1

[7] = tested on: wheat; experiment: Test A preemergence; format: in vivo, Triticum aestivum; conditions: preemergence; for Wheat plant response rating (0 to 100 scale): visual injury approx. 10 days after treatment
Method in brief: as §1

[8] = tested on: corn; experiment: Test A preemergence; format: in vivo, Zea mays; conditions: preemergence; for Corn plant response rating (0 to 100 scale): visual injury approx. 10 days after treatment
Method in brief: as §1

[9] = tested on: barnyardgrass; experiment: Test A postemergence; format: in vivo, Echinochloa crus-galli
Method in brief: as §1

[10] = tested on: crabgrass, large; experiment: Test A postemergence; format: in vivo, Digitaria sanguinalis
Method in brief: as §1

[11] = tested on: foxtail, giant; experiment: Test A postemergence; format: in vivo, Setaria faberii
Method in brief: as §1

[12] = tested on: morningglory; experiment: Test A postemergence; format: in vivo, Ipomoea spp.
Method in brief: as §1

[13] = tested on: pigweed; experiment: Test A postemergence; format: in vivo, Amaranthus retroflexus
Method in brief: as §1

[14] = tested on: velvetleaf; experiment: Test A postemergence; format: in vivo, Abutilon theophrasti
Method in brief: as §1

[15] = tested on: wheat; experiment: Test A postemergence; format: in vivo, Triticum aestivum
Method in brief: as §1

[16] = tested on: corn; experiment: Test A postemergence; format: in vivo, Zea mays
Method in brief: as §1

[17] = tested on: rice; experiment: Test B flood; format: in vivo, Oryza sativa; conditions: 250 g ai/ha, visual rating on 0 to 100 scale (0 no effect, 100 complete control), 13 to 15 days
Method in brief: (§2)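 Visual ratings (0 = no effect, 100 = complete control) versus untreated controls were taken 13–15 days after treatment of greenhouse plants. Treatment was added to paddy water held at 3 cm depth on 2-leaf-stage seedlings.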

[18] = tested on: sedge, umbrella; experiment: Test B flood; format: in vivo, Cyperus difformis; conditions: 250 g ai/ha, visual rating on 0 to 100 scale (0 no effect, 100 complete control), 13 to 15 days
Description: (§3) Seeds selected from rice (Oryza sativa), sedge, umbrella (small-flower umbrella sedge Cyperus difformis), ducksalad (Heteranthera limosa), and barnyardgrass (Echinochloa crus-galli) were grown to the 2-leaf stage for testing. At time of treatment, test pots were flooded to 3 cm above the soil surface, treated by application of test compounds directly to the paddy water, and then maintained at that water depth for the duration of the test.
(§4) Treated plants and controls were maintained in a greenhouse for 13 to 15 days, after which time all species were compared to controls and visually evaluated. Plant response ratings, summarized in Table B, are based on a scale of 0 to 100 where 0 is no effect and 100 is complete control. A dash (-) response means no test result.

[19] = tested on: ducksalad; experiment: Test B flood; format: in vivo, Heteranthera limosa; conditions: 250 g ai/ha, visual rating on 0 to 100 scale (0 no effect, 100 complete control), 13 to 15 days
Method in brief: as §2

[20] = tested on: barnyardgrass; experiment: Test B flood; format: in vivo, Echinochloa crus-galli; conditions: 250 g ai/ha, visual rating on 0 to 100 scale (0 no effect, 100 complete control), 13 to 15 days
Description: as §3, §4

[21] = 125 g ai/ha, visual injury, 0 to 100 scale, approx. 10 days
[22] = 500 g ai/ha, visual injury after approx. 10 days, 0 to 100 scale (0 no effect, 100 complete control)
[23] = Postemergence, 500 g ai/ha, 0 to 100 scale (0 no effect, 100 complete control)
[24] = postemergence, 125 g ai/ha, about 10 days, visual rating on 0 to 100 scale (0 no effect, 100 complete control)
[25] = Postemergence, 125 g ai/ha, 0 to 100 scale, 0 no effect, 100 complete control
[26] = Postemergence, 500 g ai/ha, visual rating after approx. 10 days, 0 to 100 scale (0 no effect, 100 complete control)

CCCCc1cc(C(=O)NCC(F)(F)F)nn1Cc1ccnc(C(F)(F)F)c1 [Compound 148]
100: Crabgrass, Large plant response rating [2, 22] | Pigweed plant response rating (0 to 100 scale) ([5]; 125 g ai/ha) | Pigweed plant response rating [5, 22] | Pigweed plant response rating [13, 23]
30: Morningglory plant response rating [4, 22] | Plant response rating, Ducksalad [19]
90: Foxtail, Giant plant response rating [3, 22] | Morningglory plant response rating [12, 23] | Pigweed plant response rating [13, 24]
20: Velvetleaf plant response rating [6, 22] | Crabgrass, Large plant response rating [10, 24] | Velvetleaf plant response rating [14, 24] | Wheat plant response rating [15, 23]
60: Velvetleaf plant response rating [14, 23]
40: Barnyardgrass plant response rating [1, 22] | Barnyardgrass plant response rating [9, 23] | Foxtail, Giant plant response rating [11, 23] | Corn plant response rating [16, 23] | Plant response rating, Sedge, Umbrella [18]
50: Crabgrass, Large plant response rating (0 to 100 scale) ([2]; 125 g ai/ha) | Crabgrass, Large plant response rating [10, 23]
10: Barnyardgrass plant response rating [1, 21] | Foxtail, Giant plant response rating (0 to 100 scale) ([3]; 125 g ai/ha) | Barnyardgrass plant response rating [9, 24] | Foxtail, Giant plant response rating [11, 24] | Corn plant response rating [16, 24]
0: Morningglory plant response rating (0 to 100 scale) ([4]; 125 g ai/ha) | Velvetleaf plant response rating (0 to 100 scale) ([6]; 125 g ai/ha) | Wheat plant response rating (0 to 100 scale) ([7]; 125 g ai/ha) | Wheat plant response rating [7, 22] | Corn plant response rating (0 to 100 scale) ([8]; 125 g ai/ha) | Corn plant response rating [8, 22] | Wheat plant response rating [15, 24] | Plant response rating, Barnyardgrass [20]
15: Plant response rating, Rice [17]
80: Morningglory plant response rating [12, 24]

CCc1cc(C(=O)NC2CC2)nn1Oc1cccc(C(F)(F)F)c1 [Compound 215]
0: Barnyardgrass plant response rating (0 to 100 scale, 0 is no effect, 100 is complete control) ([1]; 125 g ai/ha) | Morningglory plant response rating (0 to 100 scale) ([4]; 125 g ai/ha) | Velvetleaf plant response rating (0 to 100 scale) ([6]; 125 g ai/ha) | Wheat plant response rating (0 to 100 scale) ([7]; 125 g ai/ha) | Corn plant response rating (0 to 100 scale) ([8]; 125 g ai/ha) | Corn plant response rating [8, 22] | Wheat plant response rating [15, 25] | Plant response rating, Barnyardgrass [20]
70: Foxtail, Giant plant response rating [3, 22] | Foxtail, Giant plant response rating [11, 23]
20: Corn plant response rating [16, 23] | Plant response rating, Sedge, Umbrella [18]
10: Foxtail, Giant plant response rating (0 to 100 scale) ([3]; 125 g ai/ha) | Pigweed plant response rating (0 to 100 scale) ([5]; 125 g ai/ha) | Barnyardgrass plant response rating [9, 25] | Crabgrass, Large plant response rating [10, 25] | Foxtail, Giant plant response rating [11, 25] | Velvetleaf plant response rating [14, 25] | Wheat plant response rating [15, 23] | Corn plant response rating [16, 25] | Plant response rating, Rice [17]
40: Barnyardgrass plant response rating [9, 23] | Pigweed plant response rating [13, 25]
30: Morningglory plant response rating [12, 25] | Plant response rating, Ducksalad [19]
100: Crabgrass, Large plant response rating [2, 22] | Morningglory plant response rating [12, 23]
50: Crabgrass, Large plant response rating (0 to 100 scale) ([2]; 125 g ai/ha)
60: Barnyardgrass plant response rating [1, 22] | Crabgrass, Large plant response rating [10, 23] | Velvetleaf plant response rating [14, 23]
90: Pigweed plant response rating [13, 23]

CCCc1cc(C(=O)NC2CC2)nn1Oc1ccnc(C(F)(F)F)c1 [Compound 93]
20: Crabgrass, Large plant response rating [10, 24] | Foxtail, Giant plant response rating [11, 24] | Pigweed plant response rating [13, 24] | Velvetleaf plant response rating [14, 26] | Wheat plant response rating [15, 24]
100: Crabgrass, Large plant response rating [2, 22] | Foxtail, Giant plant response rating [3, 22] | Pigweed plant response rating [5, 22]
80: Corn plant response rating [8, 22] | Crabgrass, Large plant response rating [10, 26] | Foxtail, Giant plant response rating [11, 26]
90: Barnyardgrass plant response rating [1, 22] | Corn plant response rating [16, 26]
0: Barnyardgrass plant response rating [1, 21] | Morningglory plant response rating [4, 21] | Velvetleaf plant response rating [6, 21] | Velvetleaf plant response rating [6, 22] | Wheat plant response rating [7, 21] | Corn plant response rating [8, 21] | Barnyardgrass plant response rating [9, 25] | Morningglory plant response rating [12, 24] | Velvetleaf plant response rating [14, 24] | Corn plant response rating [16, 24] | Plant response rating, Rice [17] | Plant response rating, Barnyardgrass [20]
70: Crabgrass, Large plant response rating [2, 21]
50: Morningglory plant response rating [4, 22] | Plant response rating, Sedge, Umbrella [18] | Plant response rating, Ducksalad [19]
30: Foxtail, Giant plant response rating [3, 21] | Pigweed plant response rating [5, 21] | Wheat plant response rating [7, 22]
40: Barnyardgrass plant response rating [9, 26] | Wheat plant response rating [15, 26]
60: Morningglory plant response rating [12, 26] | Pigweed plant response rating [13, 26]

CCc1cc(C(=O)NC2CC2)nn1Cc1cc(C(F)(F)F)nn1CC [Compound 118]
70: Foxtail, Giant plant response rating [3, 21] | Morningglory plant response rating [4, 21] | Foxtail, Giant plant response rating [11, 26] | Morningglory plant response rating [12, 24]
80: Velvetleaf plant response rating [6, 22] | Barnyardgrass plant response rating [9, 26] | Pigweed plant response rating [13, 24] | Velvetleaf plant response rating [14, 26]
50: Corn plant response rating [8, 22] | Velvetleaf plant response rating [14, 24] | Corn plant response rating [16, 26]
85: Plant response rating, Sedge, Umbrella [18]
100: Barnyardgrass plant response rating [1, 22] | Crabgrass, Large plant response rating [2, 21] | Crabgrass, Large plant response rating [2, 22] | Morningglory plant response rating [4, 22] | Pigweed plant response rating [5, 21] | Pigweed plant response rating [5, 22] | Pigweed plant response rating [13, 26]
30: Wheat plant response rating [7, 22] | Barnyardgrass plant response rating [9, 24] | Plant response rating, Ducksalad [19]
90: Foxtail, Giant plant response rating [3, 22] | Crabgrass, Large plant response rating [10, 26] | Morningglory plant response rating [12, 26]
40: Barnyardgrass plant response rating [1, 21] | Crabgrass, Large plant response rating [10, 24] | Wheat plant response rating [15, 26]
10: Foxtail, Giant plant response rating [11, 24]
20: Corn plant response rating [16, 24]
0: Velvetleaf plant response rating [6, 21] | Wheat plant response rating [7, 21] | Corn plant response rating [8, 21] | Wheat plant response rating [15, 24] | Plant response rating, Rice [17] | Plant response rating, Barnyardgrass [20]

CCc1cc(C(=O)NN(C)C)nn1Cc1ccnc(C(F)(F)F)c1 [Compound 192]
20: Crabgrass, Large plant response rating [10, 23] | Corn plant response rating [16, 24]
80: Pigweed plant response rating [13, 25] | Velvetleaf plant response rating [14, 23]
10: Crabgrass, Large plant response rating [2, 22] | Morningglory plant response rating [4, 22] | Barnyardgrass plant response rating [9, 24] | Crabgrass, Large plant response rating [10, 24] | Foxtail, Giant plant response rating [11, 24] | Wheat plant response rating [15, 23]
30: Barnyardgrass plant response rating [9, 23] | Foxtail, Giant plant response rating [11, 23] | Morningglory plant response rating [12, 25]
90: Morningglory plant response rating [12, 23] | Pigweed plant response rating [13, 23]
50: Velvetleaf plant response rating [14, 25] | Corn plant response rating [16, 23]
0: Barnyardgrass plant response rating (0 to 100 scale, 0 is no effect, 100 is complete control) ([1]; 125 g ai/ha) | Barnyardgrass plant response rating [1, 22] | Crabgrass, Large plant response rating (0 to 100 scale) ([2]; 125 g ai/ha) | Foxtail, Giant plant response rating (0 to 100 scale) ([3]; 125 g ai/ha) | Foxtail, Giant plant response rating [3, 22] | Morningglory plant response rating (0 to 100 scale) ([4]; 125 g ai/ha) | Pigweed plant response rating (0 to 100 scale) ([5]; 125 g ai/ha) | Pigweed plant response rating [5, 22] | Velvetleaf plant response rating (0 to 100 scale) ([6]; 125 g ai/ha) | Velvetleaf plant response rating [6, 22] | Wheat plant response rating (0 to 100 scale) ([7]; 125 g ai/ha) | Wheat plant response rating [7, 22] | Corn plant response rating (0 to 100 scale) ([8]; 125 g ai/ha) | Corn plant response rating [8, 22] | Wheat plant response rating [15, 25] | Plant response rating, Rice [17] | Plant response rating, Sedge, Umbrella [18] | Plant response rating, Ducksalad [19] | Plant response rating, Barnyardgrass [20]
